Measurements reported in patent US12077503B2, “Substituted cyclic amides and their use as herbicides” (FMC CORPORATION, priority 2015, dated 2024).

Columns and labels:
Assay type in all cases: in vivo
[1] = system: barnyardgrass (Echinochloa crus-galli); assay: Test A preemergence; settings: Echinochloa crus-galli, pre-emergence, 240 h, 0 to 100 scale where 0 is no effect and 100 is complete control, read-out: Barnyardgrass plant response rating
How it was run: (§1)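 In a loam soil and sand blend, planted seeds got a preemergence directed soil spray, and young plants at the one- to two-leaf stage, 2–10 cm high, got a postemergence application; ~10 d greenhouse hold; injury rated visually, 0 = none, 100 = complete control.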

[2] = system: pigweed (Amaranthus retroflexus); assay: Test A preemergence; settings: Amaranthus retroflexus, pre-emergence, 240 h, 0 to 100 scale where 0 is no effect and 100 is complete control, read-out: Pigweed plant response rating
[3] = system: giant foxtail (Setaria faberii); assay: Test A preemergence; settings: Setaria faberi, pre-emergence, 240 h, 0 to 100 scale where 0 is no effect and 100 is complete control, read-out: Foxtail, Giant plant response rating
How it was run: as §1

[4] = system: ryegrass, Italian (Italian ryegrass, Lolium multiflorum); assay: Test A preemergence; settings: Lolium multiflorum, pre-emergence, 240 h, 0 to 100 scale where 0 is no effect and 100 is complete control, read-out: Ryegrass, Italian plant response rating
How it was run: as §1

Kochia (Kochia scoparia) [5] = assay: Test A preemergence; settings: Bassia scoparia, pre-emergence, 240 h, 0 to 100 scale where 0 is no effect and 100 is complete control, read-out: Kochia plant response rating
How it was run: as §1

[6] = system: ragweed (common ragweed, Ambrosia elatior); assay: Test A preemergence; settings: Ambrosia artemisiifolia, pre-emergence, 240 h, 0 to 100 scale where 0 is no effect and 100 is complete control, read-out: Ragweed plant response rating
How it was run: as §1

[7] = system: barnyardgrass (Echinochloa crus-galli); assay: Test A postemergence; settings: Echinochloa crus-galli, post-emergence, 240 h
How it was run: as §1

[8] = system: wheat (Triticum aestivum); assay: Test A postemergence; settings: Triticum aestivum, post-emergence, 240 h
How it was run: as §1

[9] = system: Galium (catchweed bedstraw, Galium aparine); assay: Test A postemergence; settings: Galium, post-emergence, 240 h
How it was run: as §1

[10] = system: pigweed (Amaranthus retroflexus); assay: Test A postemergence; settings: Amaranthus retroflexus, post-emergence, 240 h
How it was run: as §1

[11] = system: giant foxtail (Setaria faberii); assay: Test A postemergence; settings: Setaria faberi, post-emergence, 240 h
How it was run: as §1

[12] = system: blackgrass (Alopecurus myosuroides); assay: Test A postemergence; settings: Alopecurus myosuroides, post-emergence, 240 h
How it was run: as §1

[13] = system: ryegrass, Italian (Italian ryegrass, Lolium multiflorum); assay: Test A postemergence; settings: Lolium multiflorum, post-emergence, 240 h
How it was run: as §1

Kochia (Kochia scoparia) [14] = assay: Test A postemergence; settings: Bassia scoparia, post-emergence, 240 h
How it was run: as §1

corn (Zea mays) = assay: Test A postemergence; settings: Zea mays, post-emergence, 240 h
How it was run: as §1

[15] = system: ragweed (common ragweed, Ambrosia elatior); assay: Test A postemergence; settings: Ambrosia artemisiifolia, post-emergence, 240 h
How it was run: as §1

[16] = system: barnyardgrass (Echinochloa crus-galli); assay: Test B flooded paddy test; settings: Echinochloa crus-galli, 250 g ai/ha, Flood; 0 to 100 scale where 0 is no effect and 100 is complete control; read-out: Barnyardgrass plant response rating
How it was run: (§2)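 Plants at 2-leaf stage flooded to 3 cm above soil, with compounds applied directly to paddy water and that depth maintained. Plants kept in greenhouse 13–15 d. Visual rating versus controls on a 0 (no effect) to 100 (complete control) scale.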

rice (Oryra sativa) = assay: Test B flooded paddy test; settings: Oryza sativa, 250 g ai/ha, Flood; 0 to 100 scale where 0 is no effect and 100 is complete control; read-out: Rice plant response rating
How it was run: as §2

[17] = system: sedge, umbrella (small-flower umbrella sedge, Cyperus difformis); assay: Test B flooded paddy test; settings: Cyperus difformis, 250 g ai/ha, Flood; 0 to 100 scale where 0 is no effect and 100 is complete control; read-out: Sedge, Umbrella plant response rating
How it was run: as §2

[18] = system: ducksalad (Heteranthera limosa); assay: Test B flooded paddy test; settings: Heteranthera limosa, 250 g ai/ha, Flood; 0 to 100 scale where 0 is no effect and 100 is complete control; read-out: Ducksalad plant response rating
How it was run: as §2

[19] = 125 g ai/ha, preemergence, approx. 10 d

For `O=C1NC[C@H](c2csc3c2CCC3)[C@H]1C(=O)Nc1cccc(F)c1F` [Compound 1164], which pest or weed control at 31 g/ha ([1]; 31 g ai/ha, Preemergence) is on record?
The pest or weed control at 31 g/ha was 60%.

And the pest or weed control at 125 g/ha [1, 19]?
Its pest or weed control at 125 g/ha is 80%.

What about the pest or weed control at 31 g/ha ([2]; 31 g ai/ha, Preemergence) of the same compound?
Its pest or weed control at 31 g/ha is 0%.

And the pest or weed control at 125 g/ha [2, 19]?
Its pest or weed control at 125 g/ha is 0%.

What about the pest or weed control at 31 g/ha ([3]; 31 g ai/ha, Preemergence) of the same compound?
The pest or weed control at 31 g/ha was 30%.

And the pest or weed control at 125 g/ha [3, 19]?
Its pest or weed control at 125 g/ha is 30%.

And the pest or weed control at 31 g/ha ([4]; 31 g ai/ha, Preemergence)?
Its pest or weed control at 31 g/ha is 0%.

And the pest or weed control at 125 g/ha [4, 19]?
Its pest or weed control at 125 g/ha is 0%.

What about the pest or weed control at 31 g/ha (Kochia (Kochia scoparia) [5]; 31 g ai/ha, Preemergence) of the same compound?
The pest or weed control at 31 g/ha was 0%.

What about the pest or weed control at 125 g/ha (Kochia (Kochia scoparia) [5]; [19]) of the same compound?
Its pest or weed control at 125 g/ha is 20%.

And the pest or weed control at 31 g/ha ([6]; 31 g ai/ha, Preemergence)?
Its pest or weed control at 31 g/ha is 0%.

What about the pest or weed control at 125 g/ha [6, 19] of the same compound?
Its pest or weed control at 125 g/ha is 0%.

What about the pest or weed control at 125 g/ha ([7]; 125 g ai/ha, postemergence, visual injury vs untreated controls after approx. 10 d, 0 = no effect, 100 = complete control, read-out: Barnyardgrass plant response rating (0 to 100 scale)) of the same compound?
Its pest or weed control at 125 g/ha is 80%.

What about the pest or weed control at 31 g/ha ([7]; Postemergence, 31 g ai/ha, visual injury after approx. 10 d, 0 to 100 scale, 0 no effect, 100 complete control, read-out: Plant response rating, Barnyardgrass) of the same compound?
The pest or weed control at 31 g/ha was 30%.

And the plant injury at 125 g/ha ([8]; 125 g ai/ha, postemergence, visual injury vs untreated controls after approx. 10 d, 0 = no effect, 100 = complete control, read-out: Wheat plant response rating (0 to 100 scale))?
Its plant injury at 125 g/ha is 0%.

What about the plant injury at 31 g/ha ([8]; Postemergence, 31 g ai/ha, visual injury after approx. 10 d, 0 to 100 scale, 0 no effect, 100 complete control, read-out: Plant response rating, Wheat) of the same compound?
The plant injury at 31 g/ha was 0%.

And the pest or weed control at 125 g/ha ([9]; 125 g ai/ha, postemergence, visual injury vs untreated controls after approx. 10 d, 0 = no effect, 100 = complete control, read-out: Galium plant response rating (0 to 100 scale))?
The pest or weed control at 125 g/ha was 30%.

What about the pest or weed control at 31 g/ha ([9]; Postemergence, 31 g ai/ha, visual injury after approx. 10 d, 0 to 100 scale, 0 no effect, 100 complete control, read-out: Plant response rating, Galium) of the same compound?
Its pest or weed control at 31 g/ha is 0%.

What about the pest or weed control at 125 g/ha ([10]; 125 g ai/ha, postemergence, visual injury vs untreated controls after approx. 10 d, 0 = no effect, 100 = complete control, read-out: Pigweed plant response rating (0 to 100 scale)) of the same compound?
The pest or weed control at 125 g/ha was 0%.

What about the pest or weed control at 31 g/ha ([10]; Postemergence, 31 g ai/ha, visual injury after approx. 10 d, 0 to 100 scale, 0 no effect, 100 complete control, read-out: Plant response rating, Pigweed) of the same compound?
The pest or weed control at 31 g/ha was 0%.

And the pest or weed control at 125 g/ha ([11]; 125 g ai/ha, postemergence, visual injury vs untreated controls after approx. 10 d, 0 = no effect, 100 = complete control, read-out: Foxtail, Giant plant response rating (0 to 100 scale))?
The pest or weed control at 125 g/ha was 0%.

And the pest or weed control at 31 g/ha ([11]; Postemergence, 31 g ai/ha, visual injury after approx. 10 d, 0 to 100 scale, 0 no effect, 100 complete control, read-out: Plant response rating, Foxtail, Giant)?
The pest or weed control at 31 g/ha was 0%.

And the pest or weed control at 125 g/ha ([12]; 125 g ai/ha, postemergence, visual injury vs untreated controls after approx. 10 d, 0 = no effect, 100 = complete control, read-out: Blackgrass plant response rating (0 to 100 scale))?
Its pest or weed control at 125 g/ha is 0%.

And the pest or weed control at 31 g/ha ([12]; Postemergence, 31 g ai/ha, visual injury after approx. 10 d, 0 to 100 scale, 0 no effect, 100 complete control, read-out: Plant response rating, Blackgrass)?
The pest or weed control at 31 g/ha was 0%.

And the pest or weed control at 125 g/ha ([13]; 125 g ai/ha, postemergence, visual injury vs untreated controls after approx. 10 d, 0 = no effect, 100 = complete control, read-out: Ryegrass, Italian plant response rating (0 to 100 scale))?
Its pest or weed control at 125 g/ha is 0%.

And the pest or weed control at 31 g/ha ([13]; Postemergence, 31 g ai/ha, visual injury after approx. 10 d, 0 to 100 scale, 0 no effect, 100 complete control, read-out: Plant response rating, Ryegrass, Italian)?
Its pest or weed control at 31 g/ha is 0%.

And the pest or weed control at 125 g/ha (Kochia (Kochia scoparia) [14]; 125 g ai/ha, postemergence, visual injury vs untreated controls after approx. 10 d, 0 = no effect, 100 = complete control, read-out: Kochia plant response rating (0 to 100 scale))?
Its pest or weed control at 125 g/ha is 0%.

What about the pest or weed control at 31 g/ha (Kochia (Kochia scoparia) [14]; Postemergence, 31 g ai/ha, visual injury after approx. 10 d, 0 to 100 scale, 0 no effect, 100 complete control, read-out: Plant response rating, Kochia) of the same compound?
Its pest or weed control at 31 g/ha is 0%.

What about the plant injury at 125 g/ha (corn (Zea mays); 125 g ai/ha, postemergence, visual injury vs untreated controls after approx. 10 d, 0 = no effect, 100 = complete control, read-out: Corn plant response rating (0 to 100 scale)) of the same compound?
The plant injury at 125 g/ha was 0%.

And the Corn plant response rating (crop injury, 0 = no effect, 100 = complete kill) at 31 g/ha (corn (Zea mays); Postemergence, 31 g ai/ha, visual injury after approx. 10 d, 0 to 100 scale, 0 no effect, 100 complete control)?
Its Corn plant response rating (crop injury, 0 = no effect, 100 = complete kill) at 31 g/ha is 0%.

What about the pest or weed control at 125 g/ha ([15]; 125 g ai/ha, postemergence, visual injury vs untreated controls after approx. 10 d, 0 = no effect, 100 = complete control, read-out: Ragweed plant response rating (0 to 100 scale)) of the same compound?
Its pest or weed control at 125 g/ha is 0%.

What about the pest or weed control at 31 g/ha ([15]; Postemergence, 31 g ai/ha, visual injury after approx. 10 d, 0 to 100 scale, 0 no effect, 100 complete control, read-out: Plant response rating, Ragweed) of the same compound?
Its pest or weed control at 31 g/ha is 0%.

And the pest or weed control at 250 g/ha [16]?
Its pest or weed control at 250 g/ha is 40%.

What about the pest or weed control at 250 g/ha (rice (Oryra sativa)) of the same compound?
Its pest or weed control at 250 g/ha is 0%.

And the pest or weed control at 250 g/ha [17]?
The pest or weed control at 250 g/ha was 0%.

And the pest or weed control at 250 g/ha [18]?
Its pest or weed control at 250 g/ha is 95%.
